Experimental data: ChEMBL document CHEMBL5584347, “Development of Nitric Oxide Releasing Oxoisoaporphines with Antidepressant Activities by Simultaneously Regulating MAO-A and SERT” (J Med Chem, 2024)
Activity calls are given as the source filed them. The calls are words filed in the database; no cut-off is given here.

How the values were obtained:
[1] = Cytotoxicity against human SH-SY5Y cells incubated for 24 hrs by MTT assay; format: toxicity, cell-based
[2] = tested on: PC-12; experiment: Neuroprotective activity against corticosterone-induced cell injury in rat PC-12 cells assessed as increase in cell viability at 0.01 to 1 uM incubated for 24 hrs by CCK8 assay; format: functional, cell-based; settings: dose 0.01-1 µM
[3] = Toxicity in C57 mouse assessed as effect on spleen morphology at 5 to 10 mg/kg administered continuously for 2 weeks by H and E staining based analysis; format: organism-based; settings: in vivo, 336 h, dose 5-10 mg/kg
[4] = Toxicity in C57 mouse assessed as effect on liver morphology at 5 to 10 mg/kg administered continuously for 2 weeks by H and E staining based analysis; format: organism-based; settings: in vivo, 336 h, dose 5-10 mg/kg
[5] = Toxicity in C57 mouse assessed as effect on kidney pathology at 5 to 10 mg/kg administered continuously for 2 weeks by H and E staining based analysis; format: organism-based; settings: in vivo, 336 h, dose 5-10 mg/kg
[6] = tested on: Mus musculus; experiment: Antidepressant activity in chronic unpredictable mild stress induced depressive C57 mouse model assessed as increase in movement at 5 to 10 mg/kg administered continuously for 2 weeks post 5 weeks of chronic unpredictable mild stress by open field test; format: functional, organism-based; settings: dose 5-10 mg/kg
[7] = Toxicity in C57 mouse assessed as effect on lung pathology at 5 to 10 mg/kg administered continuously for 2 weeks by H and E staining based analysis; format: organism-based; settings: in vivo, 336 h, dose 5-10 mg/kg
[8] = Toxicity in C57 mouse assessed as effect on lung size at 5 to 10 mg/kg administered continuously for 2 weeks by H and E staining based analysis; format: organism-based; settings: in vivo, 336 h, dose 5-10 mg/kg
[9] = Toxicity in C57 mouse assessed as effect on heart morphology at 5 to 10 mg/kg administered continuously for 2 weeks by H and E staining based analysis; format: organism-based; settings: in vivo, 336 h, dose 5-10 mg/kg
[10] = tested on: Mus musculus; experiment: (§1) Antidepressant activity in chronic unpredictable mild stress induced depressive C57 mouse model assessed as reduction in MAO-A activity in brain at 5 to 10 mg/kg administered continuously for 2 weeks post 5 weeks of chronic unpredictable mild stress by colorimetric analysis; format: functional, organism-based; settings: dose 5-10 mg/kg
[11] = tested on: Danio rerio; experiment: Antidepressant activity in reserpine-induced depressive zebrafish model assessed as reduction in immobility time at 0.5 to 1 uM preadministered with reserpine for 40 mins followed by compound administration and measured after 7 days by open field test; format: functional, organism-based; settings: dose 0.5-1 µM, time 7.0 day
[12] = Cytotoxicity against rat PC-12 cells incubated for 24 hrs by MTT assay; format: toxicity, cell-based
[13] = Toxicity in C57 mouse assessed as effect on kidney size at 5 to 10 mg/kg administered continuously for 2 weeks by H and E staining based analysis; format: organism-based; settings: in vivo, 336 h, dose 5-10 mg/kg
[14] = tested on: Mus musculus; experiment: as §1, with “appearance of well arranged neuronal cells” for “reduction”, “hippocampus” for “MAO-A activity in brain”, “H and E staining based” for “colorimetric”; format: functional, organism-based; settings: dose 5-10 mg/kg
[15] = Toxicity in C57 mouse assessed as necrosis in heart at 5 to 10 mg/kg administered continuously for 2 weeks by H and E staining based analysis; format: organism-based; settings: in vivo, 336 h, dose 5-10 mg/kg
[16] = tested on: Mus musculus; experiment: Antidepressant activity in chronic unpredictable mild stress induced depressive C57 mouse model assessed as reduction in fecal count at 5 to 10 mg/kg administered continuously for 2 weeks post 5 weeks of chronic unpredictable mild stress; format: functional, organism-based; settings: dose 5-10 mg/kg
[17] = Toxicity in C57 mouse assessed as necrosis in lungs at 5 to 10 mg/kg administered continuously for 2 weeks by H and E staining based analysis; format: organism-based; settings: in vivo, 336 h, dose 5-10 mg/kg
[18] = tested on: Mus musculus; experiment: Antidepressant activity in chronic unpredictable mild stress induced depressive C57 mouse model assessed as increase in body weight at 5 to 10 mg/kg administered continuously for 2 weeks post 5 weeks of chronic unpredictable mild stress; format: functional, organism-based; settings: dose 5-10 mg/kg
[19] = tested on: Danio rerio; experiment: Antidepressant activity in reserpine-induced depressive zebrafish model assessed as increase in speed of movement at 0.5 to 1 uM preadministered with reserpine for 40 mins followed by compound administration and measured after 7 days by open field test; format: functional, organism-based; settings: dose 0.5-1 µM, time 7.0 day

O=C1c2ccccc2-c2nccc3cc(OCCCO[N+](=O)[O-])cc1c23
IC50 at 24 h [1]: > 100 µM | Activity [2]: Active | Activity [3]: Non-Toxic | Activity [4]: Non-Toxic | Activity [5]: Non-Toxic | Activity [6]: Active | Activity [7]: Non-Toxic | Activity [8]: Non-Toxic | Activity [9]: Non-Toxic | Activity [10]: Active | Activity [11]: Active | IC50 at 24 h [12]: > 10 µM | Activity [13]: Non-Toxic | Activity [14]: Active | Activity [15]: Non-Toxic | Activity [16]: Active | Activity [17]: Non-Toxic | Activity [18]: Active | Activity [19]: Active
